# Reference: patent US20080161400A1, “USE OF FORMS OF PROPOFOL FOR TREATING DISEASES ASSOCIATED WITH OXIDATIVE STRESS” (XenoPort, Inc., priority 2006, published 2008)
# How the values were obtained:
# [1] = system: rats; assay: Acute toxicity study in rats, single oral dose; format: in vivo
# Protocol: Acute toxicity studies in rats were undertaken to assess the tolerance of a single oral dose of compound (2) formulated in water. […] Complete recovery from hypoactivity, sedation, and anesthesia occurred in all rats within about 8 hours after dose. Doses above about 1552 mg-eq/kg (about 800 mg-eq/kg of propofol) were not tested.
# [2] = system: male beagle dogs; assay: Acute toxicity study in dogs, single oral dose; format: in vivo
# Protocol: Acute toxicity studies were also performed by orally administering a single dose of compound (2) formulated in water to groups of male beagle dogs at doses from about 25 mg-eq/kg to about 150 mg-eq/kg.
# [3] = system: male rats; assay: Multiple dose study in rats, five days, oral gavage once a day; format: in vivo; settings: 49 to 97 mg-eq/kg orally once a day for five days
# Protocol: Multiple dose studies in rats were performed by orally administering compound (2) formulated in water to groups of male rats at doses of 49 mg-eq/kg to 97 mg-eq/kg for a period of five days, by oral gavages administered once a day.
# [4] = orally administered as a homogeneous liquid suspension, relative to an equivalent intravenous dose of propofol; cited from earlier work
# [5] = oral dosing, rats; cited from earlier work
smiles,measurement,setting,value
"CC(C)c1cccc(C(C)C)c1OC(=O)OC[C@H](N)C(=O)O (stereo in doubt) [compound (2), 2-amino-3-(2,6-diisopropyl-phenoxycarbonyloxy)-propanoic acid]","Time to complete recovery from hypoactivity, sedation, and anesthesia after dose","[1]; all rats, single oral dose",≤ 8 h
same,Tolerance of a single oral dose,"[1]; rats, about 49 mg-eq/kg to about 1552 mg-eq/kg of administered compound, in water",well tolerated
same,Hypoactivity,"[1]; rats, single oral dose about 49 up to about 388 mg-eq/kg, within about 30 minutes of dose, maintained up to 4 hours post dose",Transient hypoactivity was observed
same,Sedation,"[1]; rats, single oral dose about 582 up to about 970 mg-eq/kg, within about 1.5 hours of dose, lasted up to 4 hours post dose",Sedation was observed
same,Anesthesia,"[1]; rats, single oral dose about 1164 up to about 1552 mg-eq/kg, within about 1 hour of dose, lasted up to about 2 hours post dose",Anesthesia was observed
same,Tolerance of a single oral dose,"[2]; about 25 mg-eq/kg to about 150 mg-eq/kg, in water",well tolerated
same,Sedation or anesthesia,[2]; single oral dose about 25 to about 150 mg-eq/kg,No sedation or anesthesia was observed
same,Adverse effects,[3],No adverse effects were observed
same,Sedation or anesthesia,[3],No sedation or anesthesia was observed
same,Tolerance of multiple doses,[3],well tolerated
"CC(C)c1cccc(C(C)C)c1O [propofol, 2,6-diisopropylphenol]",Oral bioavailability,[4],less than 5%
same,Administered drug undergoing first pass metabolism,[5],approximately 90%
